Reference: ChEMBL document CHEMBL1135985, “Synthesis, pharmacokinetics, efficacy, and rat retinal toxicity of a novel mitomycin C-triamcinolone acetonide conjugate” (J Med Chem, 2002)

How the values were obtained:
[1] = system: NIH3T3; assay: Inhibition of NIH 3T3 cell growth required to induce 50% of maximum response using antiproliferative assay; type: functional, cell-based; conditions: Mus musculus
[2] = system: NIH3T3; assay: Maximal percent of fibroblast cell growth inhibition using antiproliferative assay; type: functional, Mus musculus

| Compound | IC50 [1] [nM] | Inhibition [2] [%] |
| --- | --- | --- |
| CO[C@@]12[C@H](COC(N)=O)C3=C(C(O)=C(C)C(=N)C3=O)N1C[C@H]1[C@@H]2N1C(=O)CCCC(=O)OCC(=O)[C@@]12OC(C)(C)O[C@@H]1CC1C3CCC4=CC(=O)C=C[C@]4(C)[C@@]3(F)[C@@H](O)C[C@@]12C (stereo partly drawn) | 2400 | 67 |
| CO[C@@]12[C@H](COC(N)=O)C3=C(C(=O)C(C)=C(N)C3=O)N1C[C@@H]1N[C@@H]12 [MITOMYCIN] | 1700 | 88 |
| CC1(C)O[C@@H]2CC3C4CCC5=CC(=O)C=C[C@]5(C)[C@@]4(F)[C@@H](O)C[C@]3(C)[C@]2(C(=O)CO)O1.CO[C@@]12[C@H](COC(N)=O)C3=C(C(=O)C(C)=C(N)C3=O)N1C[C@@H]1N[C@@H]12 (stereo partly drawn) [MIXTURE OF MMC AND TA] | 1600 | 83 |
| CC1(C)O[C@@H]2C[C@H]3[C@@H]4CCC5=CC(=O)C=C[C@]5(C)[C@@]4(F)[C@@H](O)C[C@]3(C)[C@]2(C(=O)CO)O1 [TRIAMCINOLONE ACETONIDE] | 2500 | 25 |
